Laboratory results published in patent US20250304551A1 (SHANGHAI APEIRON THERAPEUTICS COMPANY LIMITED, priority 2022, published 2025).

Experiments:
[1] = molecular target: T1, Human KIF18A (amino acid sequence 1-417) (Homo sapiens, UniProt Q8NI77); assay: Enzyme activity detection experiment (ADP-Glo, KIF18A with tubulin and ATP); format: biochemical; conditions: tubulin 60 μg/mL, ATP 25 μM, KIF18A protein 2.5 nM, 120 minutes at ambient temperature, ADP-Glo chemiluminescence
T1 construct: purchased Viva Biotech (Shanghai) Ltd
T1 sequence (Q8NI77 1-417): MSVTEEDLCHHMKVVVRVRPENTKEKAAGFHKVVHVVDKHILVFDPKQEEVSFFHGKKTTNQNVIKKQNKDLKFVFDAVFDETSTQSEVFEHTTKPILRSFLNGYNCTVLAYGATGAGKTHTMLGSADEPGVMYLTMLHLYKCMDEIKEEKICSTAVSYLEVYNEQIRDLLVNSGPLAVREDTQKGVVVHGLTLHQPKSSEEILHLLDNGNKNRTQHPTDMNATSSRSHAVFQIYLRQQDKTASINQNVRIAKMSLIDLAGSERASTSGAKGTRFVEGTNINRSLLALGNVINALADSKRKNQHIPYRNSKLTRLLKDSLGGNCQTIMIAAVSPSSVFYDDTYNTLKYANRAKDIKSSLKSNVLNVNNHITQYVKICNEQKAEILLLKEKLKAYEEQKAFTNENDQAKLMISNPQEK
T1 sequence (Q2XVP4 whole entry partner): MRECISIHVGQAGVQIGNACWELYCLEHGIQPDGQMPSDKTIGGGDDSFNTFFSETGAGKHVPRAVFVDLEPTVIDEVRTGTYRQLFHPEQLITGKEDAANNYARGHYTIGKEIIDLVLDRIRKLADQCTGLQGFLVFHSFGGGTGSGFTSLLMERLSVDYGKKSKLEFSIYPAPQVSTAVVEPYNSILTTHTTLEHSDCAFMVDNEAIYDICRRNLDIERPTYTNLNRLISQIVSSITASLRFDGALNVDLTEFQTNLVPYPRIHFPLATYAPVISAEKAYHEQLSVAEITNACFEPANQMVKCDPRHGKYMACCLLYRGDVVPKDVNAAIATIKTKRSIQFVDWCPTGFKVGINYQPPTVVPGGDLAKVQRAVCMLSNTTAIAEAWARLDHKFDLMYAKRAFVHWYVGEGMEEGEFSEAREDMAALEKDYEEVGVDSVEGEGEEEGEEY
T1 sequence (P02554 whole entry partner): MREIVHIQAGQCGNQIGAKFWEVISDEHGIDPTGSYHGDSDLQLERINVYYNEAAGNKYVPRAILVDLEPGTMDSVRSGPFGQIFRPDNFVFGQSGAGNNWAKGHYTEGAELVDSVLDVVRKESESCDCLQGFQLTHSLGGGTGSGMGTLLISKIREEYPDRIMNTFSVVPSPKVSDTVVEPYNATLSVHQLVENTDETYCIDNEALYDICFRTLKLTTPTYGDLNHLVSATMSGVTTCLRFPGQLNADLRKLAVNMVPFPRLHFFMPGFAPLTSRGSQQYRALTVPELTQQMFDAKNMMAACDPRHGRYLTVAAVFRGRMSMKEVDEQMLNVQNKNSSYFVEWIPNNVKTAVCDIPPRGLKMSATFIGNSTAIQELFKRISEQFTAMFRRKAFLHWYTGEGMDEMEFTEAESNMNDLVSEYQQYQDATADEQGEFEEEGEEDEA
Method: Materials: Human KIF18A (amino acid sequence 1-417) was obtained from Viva Biotech (Shanghai) Ltd., and the ADP-Glo™ protein kinase kit was acquired from Promega, USA. Tubulin was sourced from Cytoskeleton, USA, while a 384-well assay plate and the Envision multifunctional microplate reader were obtained from PerkinElmer, USA.
Enzyme activity detection: The compound powder in DMSO was firstly dissolved to prepare a 10 mM stock solution. Next, gradient dilutions were prepared in the microplate to achieve final concentrations of […]. Sequentially, 2.5 μL of tubulin (60 μg/mL), the compound, ATP (25 μM), and KIF18A protein (2.5 nM) were added to each well, and the reaction was incubated at ambient temperature for 120 minutes. After the reaction, 10 μL of ADP-Glo™ reagent was added to each well and incubated at ambient temperature for 30 minutes. Subsequently, 20 μL of detection reagent was added to each well and incubated for an additional 30 minutes in the dark. Finally, chemiluminescence detection was performed using the PerkinElmer Envision multifunctional microplate reader.

OVCAR3 cells = assay: Cell proliferation activity test, OVCAR3 (CyQUANT Direct); format: cell-based; conditions: Homo sapiens, OVCAR-3, 72 h, 3 days incubation, CyQUANT fluorescence detection, read-out: OVCAR-3 Cell Viability_IC50_nM
Method: Materials and Cells: OVCAR3 cells were purchased from Nanjing Cobioer Biosciences Co., Ltd. RPMI-1640 medium, fetal bovine serum, and the CyQUANT Direct Cell Proliferation Assay kit were purchased from Thermo Fisher Scientific, USA; 96-well cell culture plates were sourced from Corning, USA.
Cell Culture: Culture OVCAR3 cells with RPMI-1640 medium containing […] and incubate them in a […] incubator at 37° C. Only cells in the logarithmic growth phase can be used for the test.
Inoculate OVCAR3 cells into a 96-well cell culture plate at 90 μL per well and incubate overnight in a […] incubator at 37° C. Dissolve the compound powder in DMSO to prepare a stock solution of 10 mM. Then perform gradient dilution for the compounds in the microplate to achieve a final concentration of 0-10 μM. Add 10 μL of cell culture medium containing compounds to each well to make the final DMSO content 0.20%. Incubate the cell plates in a […] incubator at 37° C. for 3 days. Add 100 μL of CyQUANT detection reagent to each well, react at 37° C. for 60 min, and perform fluorescence detection using the PerkinElmer Envision.

Row | Structure (SMILES) | IC50 [1] | IC50 (OVCAR3 cells)
1 | Cc1cc(-c2cc(-c3ccc(NS(=O)(=O)CCO)cc3N3CCC4(CC3)CC4)on2)nc(N2CCC(F)(F)CC2)n1 [Example 5, N-(4-(3-(2-(4,4-difluoropiperidin-1-yl)-6-methylpyrimidin-4-yl)isoxazol-5-yl)-3-(6-azaspiro[2.5]octan-6-yl)phenyl)-2-hydroxyethane-1-sulfonamide] | 1.05 µM | 0.389 µM
2 | Cc1cc(-c2cc(-c3ccc(NS(=O)(=O)CCO)cc3N3CCC4(CC3)CC4)n[nH]2)nc(N2CCC(F)(F)CC2)n1 [Example 6, N-(4-(5-(2-(4,4-difluoropiperidin-1-yl)-6-methylpyrimidin-4-yl)-1H-pyrazol-3-yl)-3-(6-azaspiro[2.5]octan-6-yl)phenyl)-2-hydroxyethane-1-sulfonamide] | 1.09 µM | 0.257 µM
3 | Cc1cc(-c2cn(-c3ccc(NS(=O)(=O)CCO)cc3N3CCC4(CC3)CC4)nn2)nc(C2=COCCO2)n1 [Example 38, N-(4-(4-(2-(5,6-dihydro-1,4-dioxin-2-yl)-6-methylpyrimidin-4-yl)-1H-1,2,3-triazol-1-yl)-3-(6-azaspiro[2.5]octan-6-yl)phenyl)-2-hydroxyethane-1-sulfonamide] | 0.452 µM | 0.424 µM
4 | Cc1cc(-c2cn(-c3ccc(NS(=O)(=O)CCO)cc3N3CCC4(CC3)CC4)nn2)nc(C2COCCO2)n1 (stereo not shown) [Example 40, N-(4-(4-(2-(1,4-dioxan-2-yl)-6-methylpyrimidin-4-yl)-1H-1,2,3-triazol-1-yl)-3-(6-azaspiro[2.5]octan-6-yl)phenyl)-2-hydroxyethane-1-sulfonamide] | > 3 µM | 0.411 µM
5 | Cc1cc(-c2cn(-c3ccc(NS(=O)(=O)CCO)cc3N3CCC4(CC3)CC4)nn2)nc(N2CC3CC2CO3)n1 (stereo not shown) [Example 47, N-(4-(4-(2-(2-oxa-5-azabicyclo[2.2.1]heptan-5-yl)-6-methylpyrimidin-4-yl)-1H-1,2,3-triazol-1-yl)-3-(6-azaspiro[2.5]octan-6-yl)phenyl)-2-hydroxyethane-1-sulfonamide] | 0.064 µM | 0.037 µM
6 | Cc1ccc2cc(-c3cn(-c4ccc(NS(=O)(=O)CCO)cc4N4CCC5(CC4)CC5)nn3)c(F)c(N3CCC(F)(F)CC3)c2n1 [Example 75, N-(3-{6-azaspiro[2.5]octan-6-yl}-4-{4-[8-(4,4-difluoropiperidin-1-yl)-7-fluoro-2-methylquinolin-6-yl]-1H-1,2,3-triazol-1-yl}phenyl)-2-hydroxyethane-1-sulfonamide] | > 3 µM | 0.3 µM
7 | O=S(=O)(CCO)Nc1ccc(-n2cc(-c3cc(OCCO)nc(N4CCC(F)(F)CC4)n3)nn2)c(N2CCC3(CC2)CC3)c1 [Example 95, N-(3-{6-azaspiro[2.5]octan-6-yl}-4-{4-[2-(4,4-difluoropiperidin-1-yl)-6-(2-hydroxyethoxy)pyrimidin-4-yl]-1H-1,2,3-triazol-1-yl}phenyl)-2-hydroxyethane-1-sulfonamide] | 0.073 µM | 0.007 µM
8 | O=S(=O)(CCO)Nc1ccc(-n2cc(-c3cc(OC4CCOC4)nc(N4CCC(F)(F)CC4)n3)nn2)c(N2CCC3(CC2)CC3)c1 (stereo not shown) [Example 96, N-(3-{6-azaspiro[2.5]octan-6-yl}-4-{4-[2-(4,4-difluoropiperidin-1-yl)-6-(oxolan-3-yloxy)pyrirmidin-4-yl]-1H-1,2,3-triazol-1-yl}phenyl)-2-hydroxyethane-1-sulfonamide] | 0.117 µM | –
9 | O=S(=O)(CCO)Nc1ccc(-n2cc(-c3cc(OCC4CCOC4)nc(N4CCC(F)(F)CC4)n3)nn2)c(N2CCC3(CC2)CC3)c1 (stereo not shown) [Example 97, N-(3-(6-azaspiro[2.5]octan-6-yl)-4-{4-[2-(4,4-difluoropiperidin-1-yl)-6-[(oxolan-3-yl)methoxy]pyrimidin-4-yl]-1-1,2,3-triazol-1-yl}phenyl)-2-hydroxyethane-1-sulfonamide] | 0.234 µM | –
10 | CCC(CO)S(=O)(=O)Nc1ccc(-n2cc(-c3cc(C)nc(N4CCC(F)(F)CC4)n3)nn2)c(N2CCC3(CC2)CC3)c1 (stereo not shown) [Example 98, N-(3-{6-azaspiro[2.5]octan-6-yl}-4-{4-[2-(4,4-difluoropiperidin-1-yl)-6-methylpyrimidin-4-yl]-1H-1,2,3-triazol-1-yl}phenyl)-1-hydroxybutane-2-sulfonamide] | 0.154 µM | –
11 | C[C@H](CO)S(=O)(=O)Nc1ccc(-n2cc(-c3cc(N4CCC(F)(F)CC4)c4ncccc4c3)nn2)c(N2CCC3(CC2)CC3)c1 [Example 99, (2R)—N-(3-(6-azaspiro[2.5]octan-6-yl)-4-{4-[8-(4,4-difluoropiperidin-1-yl)quinolin-6-yl]-1H-1,2,3-triazol-1-yl}phenyl)-1-hydroxypropane-2-sulfonamide] | 0.214 µM | –
12 | C[C@@H](CO)S(=O)(=O)Nc1ccc(-n2cc(-c3cc(N4CCC(F)(F)CC4)c4ncccc4c3)nn2)c(N2CCC3(CC2)CC3)c1 [Example 100, (2S)—N-(3-{6-azaspiro[2.5]octan-6-yl}-4-{4-[8-(4,4-difluoropiperidin-1-yl)quinolin-6-yl]-1H-1,2,3-triazol-1-yl}phenyl)-1-hydroxypropane-2-sulfonamide] | 0.187 µM | –
13 | CC(C)(CO)S(=O)(=O)Nc1ccc(-n2cc(-c3cc(N4CCC(F)(F)CC4)c4ncccc4c3)nn2)c(N2CCC3(CC2)CC3)c1 [Example 101, N-(4-(4-(8-(4,4-difluoropiperidin-1-yl)quinolin-6-yl)-1H-1,2,3-triazol-1-yl)-3-(6-azaspiro[2.5]octan-6-yl)phenyl)-1-hydroxy-2-methylpropane-2-sulfonamide] | 0.32 µM | –
14 | COc1cc(-c2nnc(-c3ccc(NS(=O)(=O)C(C)CO)cc3N3CCC4(CC3)CC4)o2)cc(N2CCC(F)(F)CC2)n1 (stereo not shown) [Example 102, N-(4-(5-(2-(4,4-difluoropiperidin-1-yl)-6-methoxypyridin-4-yl)-1,3,4-oxadiazol-2-yl)-3-(6-azaspiro[2.5]octan-6-yl)phenyl)-1-hydroxypropane-2-sulfonamide] | 0.06 µM | –
15 | Cc1cc(-c2nnc(-c3ccc(NS(=O)(=O)C(C)CO)cc3N3CCC4(CC3)CC4)o2)cc(N2CCC(F)(F)CC2)n1 (stereo not shown) [Example 103, N-(4-(5-(2-(4,4-difluoropiperidin-1-yl)-6-methylpyridin-4-yl)-1,3,4-oxadiazol-2-yl)-3-(6-azaspiro[2.5]octan-6-yl)phenyl)-1-hydroxypropane-2-sulfonamide] | 0.073 µM | –
16 | Cc1cc(-c2nnc(-c3ccc(NS(=O)(=O)C(C)(C)CO)cc3N3CCC4(CC3)CC4)o2)cc(N2CCC(F)(F)CC2)n1 [Example 104, N-(4-(5-(2-(4,4-difluoropiperidin-1-yl)-6-methylpyridin-4-yl)-1,3,4-oxadiazol-2-yl)-3-(6-azaspiro[2.5]octan-6-yl)phenyl)-1-hydroxy-2-methylpropane-2-sulfonamide] | 0.083 µM | –
17 | COc1cc(-c2nnc(-c3ccc(NS(=O)(=O)C(C)(C)CO)cc3N3CCC4(CC3)CC4)o2)cc(N2CCC(F)(F)CC2)n1 [Example 105, N-(4-(5-(2-(4,4-difluoropiperidin-1-yl)-6-methoxypyridin-4-yl)-1,3,4-oxadiazol-2-yl)-3-(6-azaspiro[2.5]octan-6-yl)phenyl)-1-hydroxy-2-methylpropane-2-sulfonamide] | 0.062 µM | –
18 | Cc1cc2nc(-c3ccc(NS(=O)(=O)CCO)cc3N3CCC4(CC3)CC4)[nH]c2c(N2CCC(F)(F)CC2)n1 [Example 106, N-(4-(4-(4,4-difluoropiperidin-1-yl)-6-methyl-3H-imidazo[4,5-c]pyridin-2-yl)-3-(6-azaspiro[2.5]octan-6-yl)phenyl)-2-hydroxyethane-1-sulfonamide] | 0.21 µM | –
